Patent publication US7736848B2, “Cellular targets for treatment of retroviral infection” (Fox Chase Cancer Center, priority 2002, dated 2010)
Values belong to the molecule of their own block, whether it stands above or below them.

How the values were obtained:
ASV vector [1] = assay: Viral DNA synthesis in ASV-infected HeLa cells (real time PCR); type: cell-based; details: up to 4 mM; 24 hr post-infection
Description: Real Time PCR. Extrachromosomal DNA from infected and uninfected cells was prepared by HIRT extraction. Real-Time PCR amplification, data-acquisition and analysis were preformed with the Cephid Smart Cycler. The Biochemistry and Biotechnology Facility at the Fox Chase Cancer Center prepared the primers using BHQ-1 non-fluorogenic quencher (Biosearch Technologies). Viral sequence primers directed against ASV pol were selected using Primer Express™ (Applied Biosystems) and had the following sequences: Forward primer, 5′-[…]-3′ (SEQ ID NO:1); Reverse primer, 5′-[…]-3′ (SEQ ID NO:2); Probe, 5′-(FAM) CC […] (BHQ)-3′ (SEQ ID NO:3). Results were normalized with those from primers against mitochondrial DNA (Asaad et al., Oncogene 19: 5788-5800, 2000). Each reaction contained 1× Reaction Buffer (20 mM Tris-HCl, pH 8.4), 50 mM KCl), 0.25 mM each dNTP, 2.5 mM MgCl2, 400 nM primers, 200 nM probe and 2.5 U Platinum Taq Polymerase (Invitrogen). Relative quantitation was calculated with the Comparative Cycle Threshold Method using the untreated samples as the reference (User, B. ABI Prism 7700 Sequence Detection System; the Perkin Elmer Corporation, P/N 4303859 Rev. A. Stock No. 77802-001, 1997). […] Relative quantitation was averaged and standard deviations were determined between independent experiments.
Synthesis of viral DNA was detected by quantitative PCR.

ASV vector [2] = assay: Nuclear import: LTR-LTR circle junctions in ASV-infected HeLa cells; type: cell-based
PBMC = details: at the utilized concentration (4 mM)
mTOR = mTOR (Homo sapiens, UniProt P42345); details: cited from earlier work
DNA-PK = DNA-PK (Homo sapiens, UniProt P78527); details: cited from earlier work
HIV-1 strain NL4-3 = assay: 2-LTR DNA junctions (nuclear import) in NL4-3-infected PBMCs; type: cell-based; details: 24 hours post-infection
ASV vector [3] = assay: organism not typed; type: cell-based; details: HeLa, 24 h, read-out: inhibition of integration (host-viral junction DNA)
ATM kinase = ATM kinase (Homo sapiens, UniProt Q13315); details: in vitro; read-out: IC50 for ATM kinase inhibition; cited from earlier work
ASV-based vector = assay: Stable transduction of HeLa cells by ASV neo vector; type: cell-based; details: 24 h, read-out: IC50, reduction in number of cells stably transduced by ASV vector
Description: (§1) Infection of HeLa Cells. […] The virus-containing medium was then replaced with fresh medium. Two to seven days after infection with the HIV-1 vector (as indicated) cells were stained using a β-galactosidase assay (Stratagene). Cells were selected for G418 resistance one day after infection with the ASV vector by addition of 1 mg/ml G418.
(§2) After infection with ASV, G418 was also added at this time.

HIV-1 integrase = target: T1, HIV-1 integrase (Human immunodeficiency virus type 1 group M subtype B, UniProt P04585); assay: In vitro integrase activity, HIV-1 integrase; type: biochemical; details: up to 10 mM
T1 construct: For HIV-1 integrase, reactions contained 1.0 M HIV IN
Description: For HIV-1 integrase, reactions contained […] HIV IN, 1.0 μM U5 21/21 substrate (Katz & Skalka, Ann. Rev. Biochem. 63: 133-173, 1994; Coffin et al., Retroviruses, Cold Spring Harbor Laboratory, 1997) in 22 mM Hepes, pH 7.5, 5.1 mM DTT, 6% glycerol, 6.66% DMSO, 50 mM KCl and 10 mM MnCl2. Conditions were as described for ASV IN, except that the final incubation time was 60 min.

[4] = system: primary human macrophages; assay: Cytotoxicity in primary human macrophages; details: conditions of the transduction test
HIV-1-based vector [5] = assay: HIV-1 vector transduction of terminally differentiated primary macrophages; type: cell-based; details: caffeine 24 hrs
Description: Human peripheral blood mononuclear cells (PBMC) were isolated by centrifugation in Ficoll-Hypaque (Sigma, St. Louis, Mo., USA) from buffy coats of HIV-1 seronegative individuals. Monocyte-derived macrophages (MDM) were obtained from PBMC by adherence to plastic for 12 hours in DMEM supplemented with 10% human serum (Cellgro, Herndon, Va., USA), washed, and cultured in the same medium in the presence of macrophage colony-stimulating factor (MCSF, 2 ng/ml; Sigma, St. Louis, Mo., USA) for another 7-10 days, allowing cells to differentiate before infection. The medium was replaced twice during the incubation period. The primary cells were kept at 37° C. in a humidified incubator with 5% CO2.

ATR kinase = ATR kinase (Homo sapiens, UniProt Q13535); details: in vitro; read-out: IC50 for ATR kinase inhibition; cited from earlier work
[6] = system: neomycin phosphotransferase II; assay: Expression of neo reporter in stably transduced HeLa cells (Western blot); type: cell-based; details: 24 hr, up to 4 mM caffeine
Description: Western Blot Analyses. […] Cells were then harvested, lysed, and lysates were subjected to electrophoresis in a 10% SDS polyacrylamide gel. The separated proteins were then transferred to a PVDF membrane and the filter was treated with neomycin phosphotransferase II antibody (Upstate Biotech). Bands were detected using a chemi-luminiscence assay.

HIV-1 NL4-3 (X4) strain = assay: HIV-1 NL4-3 replication in PBMCs (p24 antigen ELISA); type: cell-based; details: 4 mM; for drop in HIV-1 p24 antigen levels: 7 days post-infection; for p24 antigen levels vs control: 12 days post-infection; for decrease in HIV-1 p24 antigen vs NL4-3 infected control: day 3 post-infection; for inhibition of NL4-3 growth: p24 at 6 days post-infection
HIV-1-based vector [7] = assay: HIV-1 vector transduction of dividing and nocodazole-arrested 293T cells; type: cell-based
Description: To arrest cells in M phase, cells were treated with nocodazole (1 μg/ml) for 24 hrs prior to addition of the virus. Nocodazole was maintained in the cell culture medium during and after infection. Cells were distributed in a 24-well plate at a density of 5×10^4 cells per well and nocodazole was added to a final concentration of 1 μg/ml. […] Two days post-infection, cells were stained using a β-galactosidase assay (Stratagene according to manufacturer's protocol) and blue cells counted.

293T cells = assay: Cytotoxicity in 293T cells; details: conditions of the transduction test
HIV-1-based vector [8] = assay: Stable transduction of HeLa cells by HIV-1-lacZ vector; type: cell-based; details: Human immunodeficiency virus 1, HeLa, read-out: IC50, reduction in number of cells stably transduced by HIV-1 vector
Description: as §1, §2
Transduction was measured five to six days later by the presence of β-galactosidase positive colonies.

HIV-1-based vector [9] = assay: Transduction of parental GM847 cells treated with doxycycline; type: cell-based
PCNA [10] = assay: PCNA Western blot in nocodazole-treated GM847/ATRkd cells; type: cell-based, human; details: nocodazole 1 μg/ml
Description: GM847/ATRkd cells were plated at a density of 2×10^4 cells per well of 24-well plate, in the presence or absence of doxycycline (5 μg/ml) and nocodazole (1 μg/ml).
To examine the role of ATR in growth-arrested cells, the GM847/ATRkd cells were treated with nocodazole in addition to doxycycline.

PCNA [11] = assay: PCNA Western blot in nocodazole-treated 293T cells; type: cell-based; details: nocodazole 1 μg/ml, 24 hrs
Description: To determine the efficiency of the nocodazole arrest, cells were assayed for expression of the proliferating-cell nuclear antigen (PCNA) by Western blotting with an anti-PCNA antibody. PCNA accumulates in cells as they enter S phase, but is rapidly degraded in other phases of the cell cycle. (Takase, K et al. Reversible G1 arrest induced by dimethyl sulfoxide in human lymphoid cell lines: kinetics of the arrest and expression of the cell cycle marker proliferating cell nuclear antigen in Raji cells. Cell Growth Differ 1992, 3:515-521).

[12] = system: retroviral transduction of HeLa cells; assay: Retroviral transduction of HeLa cells treated with mTOR inhibitor
[13] = system: macrophage-tropic (R5) HIV-1 strain, ADA; assay: HIV-1 ADA replication in PBMCs (p24 antigen); type: cell-based; details: Human immunodeficiency virus 1, PBMC, p24 at 6 days post-infection
[14] = cited from earlier work
[15] = system: p53 phosphorylated on serine 15; assay: p53 serine 15 phosphorylation in NL4-3-infected PBMCs (Western blot); type: cell-based, human; details: 24 hrs
[16] = system: BRCA1 phosphorylated on serine 1423; assay: BRCA1 serine 1423 phosphorylation in PBMCs (Western blot); type: cell-based, human

Sequence of ATR kinase (Q13535 whole entry): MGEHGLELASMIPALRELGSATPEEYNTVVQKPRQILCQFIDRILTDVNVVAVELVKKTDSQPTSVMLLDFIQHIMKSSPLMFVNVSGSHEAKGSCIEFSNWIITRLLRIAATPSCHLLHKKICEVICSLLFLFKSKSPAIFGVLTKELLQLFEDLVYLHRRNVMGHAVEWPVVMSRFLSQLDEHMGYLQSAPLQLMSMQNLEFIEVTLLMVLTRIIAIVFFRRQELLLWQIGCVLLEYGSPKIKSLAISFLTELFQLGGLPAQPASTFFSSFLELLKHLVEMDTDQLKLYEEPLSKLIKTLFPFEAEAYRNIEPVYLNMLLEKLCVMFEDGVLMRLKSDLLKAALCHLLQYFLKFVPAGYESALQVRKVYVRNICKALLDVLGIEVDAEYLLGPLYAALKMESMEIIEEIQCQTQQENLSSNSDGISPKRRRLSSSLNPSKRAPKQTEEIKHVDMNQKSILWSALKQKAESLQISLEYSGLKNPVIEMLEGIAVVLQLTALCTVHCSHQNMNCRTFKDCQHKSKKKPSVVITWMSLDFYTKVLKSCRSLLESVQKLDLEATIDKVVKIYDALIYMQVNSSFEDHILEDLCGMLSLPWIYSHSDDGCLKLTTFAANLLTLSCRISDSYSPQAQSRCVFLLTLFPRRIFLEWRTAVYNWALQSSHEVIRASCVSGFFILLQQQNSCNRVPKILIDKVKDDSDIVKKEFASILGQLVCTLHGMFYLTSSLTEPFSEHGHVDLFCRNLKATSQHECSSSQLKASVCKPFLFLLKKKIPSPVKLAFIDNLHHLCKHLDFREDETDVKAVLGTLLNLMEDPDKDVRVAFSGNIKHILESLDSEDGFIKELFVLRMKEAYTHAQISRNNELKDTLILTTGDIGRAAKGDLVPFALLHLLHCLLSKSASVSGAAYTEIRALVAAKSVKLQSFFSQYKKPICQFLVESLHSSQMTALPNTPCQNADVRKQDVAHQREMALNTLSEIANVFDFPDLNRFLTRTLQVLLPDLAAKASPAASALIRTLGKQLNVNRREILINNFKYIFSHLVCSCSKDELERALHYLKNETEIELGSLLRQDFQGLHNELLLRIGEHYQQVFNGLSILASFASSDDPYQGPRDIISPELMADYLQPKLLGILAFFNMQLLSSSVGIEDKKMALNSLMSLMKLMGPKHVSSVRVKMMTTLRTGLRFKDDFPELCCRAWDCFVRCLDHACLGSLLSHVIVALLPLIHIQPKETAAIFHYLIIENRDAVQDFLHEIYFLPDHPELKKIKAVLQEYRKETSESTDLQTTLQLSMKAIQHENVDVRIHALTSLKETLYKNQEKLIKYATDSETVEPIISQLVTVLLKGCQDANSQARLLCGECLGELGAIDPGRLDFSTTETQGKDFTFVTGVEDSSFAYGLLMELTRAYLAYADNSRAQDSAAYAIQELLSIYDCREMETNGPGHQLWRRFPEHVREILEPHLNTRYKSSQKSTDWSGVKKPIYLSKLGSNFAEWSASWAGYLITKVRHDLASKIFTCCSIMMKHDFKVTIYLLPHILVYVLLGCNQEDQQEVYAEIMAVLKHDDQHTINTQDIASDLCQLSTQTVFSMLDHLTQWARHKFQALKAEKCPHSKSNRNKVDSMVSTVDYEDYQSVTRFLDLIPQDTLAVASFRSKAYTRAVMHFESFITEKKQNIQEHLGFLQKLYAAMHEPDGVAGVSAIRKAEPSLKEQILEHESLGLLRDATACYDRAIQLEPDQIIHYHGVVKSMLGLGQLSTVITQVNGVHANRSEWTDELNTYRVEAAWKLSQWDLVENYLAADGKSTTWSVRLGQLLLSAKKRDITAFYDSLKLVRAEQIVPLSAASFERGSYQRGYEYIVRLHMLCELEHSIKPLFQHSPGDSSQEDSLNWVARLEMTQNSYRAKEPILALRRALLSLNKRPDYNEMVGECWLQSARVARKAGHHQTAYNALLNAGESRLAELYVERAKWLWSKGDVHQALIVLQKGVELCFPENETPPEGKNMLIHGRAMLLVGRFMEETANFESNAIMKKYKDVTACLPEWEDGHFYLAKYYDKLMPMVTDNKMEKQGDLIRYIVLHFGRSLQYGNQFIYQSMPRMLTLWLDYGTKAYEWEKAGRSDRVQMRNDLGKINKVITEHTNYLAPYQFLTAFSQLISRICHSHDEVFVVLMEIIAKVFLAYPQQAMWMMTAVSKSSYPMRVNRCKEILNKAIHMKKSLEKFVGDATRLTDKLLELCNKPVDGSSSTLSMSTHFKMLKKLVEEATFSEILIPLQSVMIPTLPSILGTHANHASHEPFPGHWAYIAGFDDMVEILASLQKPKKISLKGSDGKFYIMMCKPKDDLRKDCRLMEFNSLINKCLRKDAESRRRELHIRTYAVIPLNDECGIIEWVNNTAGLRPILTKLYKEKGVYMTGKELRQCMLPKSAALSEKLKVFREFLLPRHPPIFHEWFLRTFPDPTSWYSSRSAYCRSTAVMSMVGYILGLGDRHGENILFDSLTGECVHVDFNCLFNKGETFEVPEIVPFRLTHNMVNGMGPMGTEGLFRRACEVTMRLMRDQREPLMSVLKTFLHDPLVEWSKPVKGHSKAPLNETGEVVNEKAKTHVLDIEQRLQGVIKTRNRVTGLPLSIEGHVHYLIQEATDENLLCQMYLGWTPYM
Sequence of ATR kinase (Q8WXE1 whole entry partner): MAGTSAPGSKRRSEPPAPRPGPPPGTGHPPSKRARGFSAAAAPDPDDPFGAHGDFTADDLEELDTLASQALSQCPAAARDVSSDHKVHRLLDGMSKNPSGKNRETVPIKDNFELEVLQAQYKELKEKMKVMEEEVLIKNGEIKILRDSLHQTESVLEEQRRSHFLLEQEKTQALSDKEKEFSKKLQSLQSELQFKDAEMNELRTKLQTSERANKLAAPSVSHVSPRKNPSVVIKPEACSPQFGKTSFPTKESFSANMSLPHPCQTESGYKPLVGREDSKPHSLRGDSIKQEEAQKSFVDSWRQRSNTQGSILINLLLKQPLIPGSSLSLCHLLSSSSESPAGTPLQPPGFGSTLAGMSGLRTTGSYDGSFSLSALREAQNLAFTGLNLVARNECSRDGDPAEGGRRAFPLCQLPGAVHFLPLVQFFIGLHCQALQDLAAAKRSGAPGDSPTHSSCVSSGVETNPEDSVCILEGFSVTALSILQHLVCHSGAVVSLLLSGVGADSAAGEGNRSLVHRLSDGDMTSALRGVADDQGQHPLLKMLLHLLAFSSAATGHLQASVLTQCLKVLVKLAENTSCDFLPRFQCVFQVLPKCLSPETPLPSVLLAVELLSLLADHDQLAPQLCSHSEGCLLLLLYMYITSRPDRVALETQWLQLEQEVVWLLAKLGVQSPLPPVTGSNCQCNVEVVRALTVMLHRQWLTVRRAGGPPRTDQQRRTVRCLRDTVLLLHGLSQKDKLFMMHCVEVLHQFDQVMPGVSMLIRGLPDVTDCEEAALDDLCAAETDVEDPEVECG

SMILES: Cn1c(=O)c2c(ncn2C)n(C)c1=O [caffeine, 1,3,7-trimethylxanthine]
effect on amount of viral DNA detected (ASV vector [1]): only a modest effect | formation of circle junctions (ASV vector [2]; 2 mM caffeine): not significantly affected | formation of circle junctions (ASV vector [2]; 4 mM caffeine): only a modest decrease | cellular cytotoxicity (XTT assay) (PBMC): did not show any significant cellular cytotoxicity | inhibition of mTOR in vitro (mTOR): inhibits | sensitivity of DNA-PK to caffeine (DNA-PK): not sensitive | level of 2-LTR junctions (HIV-1 strain NL4-3): No significant inhibitory effect | inhibition at 4000 µM (ASV vector [3]): 88% | IC50 (ATM kinase): 1000 to 2000 µM | IC50 (ASV-based vector): ~800 µM | processing activity of HIV-1 integrase (HIV-1 integrase): unaffected | cytotoxicity [4]: no visible cytotoxicity | transduction of terminally differentiated primary human macrophages (HIV-1-based vector [5]): inhibit | IC50 (ATR kinase): 1000 to 2000 µM | amount of reporter protein (neomycin phosphotransferase) [6]: no reduction | drop in HIV-1 p24 antigen levels (HIV-1 NL4-3 (X4) strain): three | p24 antigen levels vs control (HIV-1 NL4-3 (X4) strain): reached the control level | decrease in HIV-1 p24 antigen vs NL4-3 infected control (HIV-1 NL4-3 (X4) strain): 9 fold | inhibition of NL4-3 growth (HIV-1 NL4-3 (X4) strain): approximately 9 fold | transduction by multiply attenuated HIV-1-based vector (lacking vpr, vif, vpu, nef) (HIV-1-based vector [7]; 293T cells, dividing and nocodazole-arrested): inhibited | HIV-transduction of dividing cells (HIV-1-based vector [7]; exponentially dividing 293T cells, caffeine 24 h, dose-dependent): inhibited | HIV-transduction of nocodazole-arrested cells (HIV-1-based vector [7]; nocodazole-arrested 293T cells, caffeine 24 h, dose-dependent): inhibited | cytotoxicity (293T cells): No caffeine cytotoxicity | IC50 (HIV-1-based vector [8]): ~1500 µM

SMILES: C[C@H]1c2cccc(O)c2C(=O)C2=C(O)[C@]3(O)C(=O)C(C(N)=O)=C(O)[C@@H](N(C)C)[C@@H]3[C@@H](O)[C@@H]21 [doxycycline]
effect on transduction of parental cells (HIV-1-based vector [9]): no effect

SMILES: COC(=O)Nc1nc2ccc(C(=O)c3cccs3)cc2[nH]1 [nocodazole]
amount of PCNA relative to exponentially dividing cells (PCNA [10]): 10-20% | amount of PCNA relative to exponentially dividing cells (PCNA [11]): ≤ 5%

SMILES: CO[C@H]1C[C@@H]2CC[C@@H](C)[C@@](O)(O2)C(=O)C(=O)N2CCCC[C@H]2C(=O)O[C@H]([C@H](C)C[C@@H]2CC[C@@H](O)[C@H](OC)C2)CC(=O)[C@H](C)/C=C(\C)[C@@H](O)[C@@H](OC)C(=O)[C@H](C)C[C@H](C)/C=C/C=C/C=C/1C [rapamycin]
effect on retroviral transduction [12]: no effect

IC50 [13]: ~100 µM
SMILES: Cn1cnc2c1c(=O)[nH]c(=O)n2C [theobromine, 3,7-dimethylxanthine]
inhibition of NL4-3 growth (HIV-1 NL4-3 (X4) strain): ~2 fold

IC50 [13]: ~60 µM
SMILES: Cn1c(=O)c2[nH]cnc2n(C)c1=O [theophylline, 1,3-dimethylxanthine]
cellular cytotoxicity (XTT assay) (PBMC): did not show any significant cellular cytotoxicity | concentration reached in plasma of theophylline-treated patients [14]: 28 to 110 µM | p53 phosphorylation (serine 15) [15]: suppressed | drop in HIV-1 p24 antigen levels (HIV-1 NL4-3 (X4) strain): four-fold | p24 antigen levels vs control (HIV-1 NL4-3 (X4) strain): reached the control level | decrease in HIV-1 p24 antigen vs NL4-3 infected control (HIV-1 NL4-3 (X4) strain): 9 fold | inhibition of NL4-3 growth (HIV-1 NL4-3 (X4) strain): ~5 fold | BRCA1 phosphorylation (serine 1423) ([16]; NL4-3-infected PBMCs, 24 hrs): suppressed | basal phosphorylation of BRCA1 on serine 1423 ([16]; PBMCs, basal): failed to suppress
